Measurements: the NIST ThermoML archive (doi:10.1021/je900902z)
± gives the expanded uncertainty stated by the source.

Settings: DTA; for Triple point temperature: Crystal 2; for Normal melting temperature: Crystal

| SMILES | Triple point temperature | Normal melting temperature |
| --- | --- | --- |
| O=S(=O)([N-]S(=O)(=O)C(F)(F)C(F)(F)F)C(F)(F)C(F)(F)F.[Cs+] [cesium bis((perfluoroethyl)sulfonyl)amide] | 369 ± 2 K | 253 ± 2 °C |
| O=S(=O)([N-]S(=O)(=O)C(F)(F)C(F)(F)F)C(F)(F)C(F)(F)F.[Li+] [lithium bis(pentafluoroethylsulfonyl)amide] | 485 ± 2 K | 328 ± 2 °C |
| O=S(=O)([N-]S(=O)(=O)C(F)(F)C(F)(F)F)C(F)(F)C(F)(F)F.[K+] [potassium bis(pentafluoroethylsulfonyl) amide] | 427 ± 2 K | 273 ± 2 °C |
| O=S(=O)([N-]S(=O)(=O)C(F)(F)C(F)(F)F)C(F)(F)C(F)(F)F.[Rb+] [rubidium bis((perfluoroethyl)sulfonyl)amide] | 419 ± 2 K | 266 ± 2 °C |
| O=S(=O)([N-]S(=O)(=O)C(F)(F)C(F)(F)F)C(F)(F)C(F)(F)F.[Na+] [sodium bis(pentafluoroethylsulfonyl)amide] | 454 ± 2 K | 266 ± 2 °C |
